The source of these data is US10918714B2, “Human iNKT cell activation using glycolipids with altered glycosyl groups” (Academia Sinica, priority 2013, dated 2021).

Entries after “also recorded” stand apart in the source; their conditions may differ.

The subject of one assay is B6 WT mice splenocytes. Description: FACS analyses of WT mouse immune cells (splenocytes) after glycolipid stimulation. It is filed as in vivo. As to conditions: 1 μg/mouse, 72 hr post-injection. As to the method:
(§1) B6 WT or Jα18 KO mice treated with specific glycolipid (1 μg/mouse) or vehicle (1% DMSO in PBS) were sacrificed at 72 hr post-injection and their spleens were harvested. After pressing spleens through 70 um strainer and lysis of erythrocytes, the nucleated cells were resuspended in PBS buffer containing azide (0.05%) and stained with antibodies recognizing the indicated cell surface antigens for 30 min at 4° C. After washing, the splenocytes were subjected to FACS analysis. The antibodies against CD3, CD4, CD8β, CD11c, CD80, and CD86 were obtained from BD Bioscience-Pharmingen.

The next assay has as its system B6 wild type mice. Description: Murine serum cytokine/chemokine secretion after i.v. glycolipid, B6 WT mice. In kind it is in vivo. As to conditions: i.v. 1 μg/mouse; for induction of serum cytokines/chemokines: sera 2 and 18 hr after injection. As to the method: (§2) All the glycolipids were dissolved in 100% DMSO at a concentration of 1-2 mg/ml. For in vivo experiments, all compounds were diluted to 10 μg/ml in saline just before injection of 100 μl diluted glycolipid or 100 μl 1% DMSO into mice. Pathogen-free C57BL/6 female mice aged 6-12 weeks were obtained from the National Laboratory Animal Center (Taipei, Taiwan). Jα18 knockout (KO) B6 mice were the gifts from Dr. Masaru Taniguchi (RIKEN Research Center for Allergy and Immunology, Yokohama, Japan). All the mice were maintained in pathogen free vivarium of Institute of Cellular and Organismic Biology, Academia Sinica (Taipei, Taiwan).
(§3) B6 WT or Jα18 KO mice were intravenously injected with vehicle or glycolipids at 0.1 or 1 μg/mouse. Serum was collected at 2 and 18 h after injection for measurement of cytokines/chemokines by Beadlyte® Mouse Cytokine kit (Millipore, N.Y.) and read by a Luminex® 200™ system (Luminex, Austin, Tex.).

Another assay deals with mouse iNKT TCR (Mus musculus, UniProt A0A0B4J1J9+P11609). Nature of the assay: Binding avidity of mCD1d-loaded glycolipids to Vα14+ iNKT cells (ternary interaction). As to conditions: for Kd: mCD1d-glycolipid complex, DN3A4-1.2 murine iNKT hybridoma cells. The procedure:
Briefly, murine CD1d:Ig dimer (BD Biosciences PharMingen, San Diego, Calif.) was loaded with glycolipids at a molar ratio of 1:10 or vehicle for overnight at 37° C. Murine 1.2 Vα14^+ iNKT cells were incubated with various doses of dimer-glycolipid complex in buffer containing azide (0.05%) for 30 min at 4° C. These cells were then stained with anti-mouse IgG1-PE mAb (A85-1) for another 30 min at 4° C., followed by washing, fixation with 4% paraformaldehyde (PFA), and the bound mCD1d dimer complexes were detected by flow cytometry. The binding curve and linear fit of the Scatchard transformation were plotted by Graphpad Prism software.

In a further assay the test system is C1-pulsed splenocytes. Description: CD1d dimer staining of in vivo C1-pulsed splenocytes. It is filed as binding. As to conditions: B6 WT splenocytes 3 days after C1 1 μg/mouse, CD3+/CD45R− gate. As to the method: FIGS. 11A-D show: CD1d dimer staining of in vivo C1-pulsed splenocytes. B6 WT splenocytes (n=3) were harvested 3 days after injection with C1 (1 μg/mouse) and stained with CD3, CD45R and the indicated dimer complex conjugated with RPE for 1 hr at 4 degrees Celsius. (11A) CD3+/CD45R− cells were gated to analyze the dimer staining. (11B) unloaded dimer was used as the control. (11C) mCD1d dimer loaded with 7DW8-5-Glc stained 17.1±0.8% of C1-pulsed splenocytes. (11D) mCD1d dimer loaded with 7DW8-5 stained 36.2±5.0% of C1-pulsed splenocytes.

Assay [1] has as its system Human naïve Vα24+ iNKT cells. Description: Expansion of human iNKT cells. It is filed as cell-based. Conditions: DCs pulsed with glycolipid at 100 ng/ml, IL-2 culture. As to the method: Human naïve Vα24^+ iNKT cells were cultured with autologous immature CD14^+ DCs pulsed with the indicated glycolipid at 100 ng/ml or DMSO on day 2 for 18 h. On day 3, the suspension cells were transferred to a new dish, cultured in the presence of 50 U/ml IL-2 (R & D Systems), and replenished with fresh medium every 3 days. The percentage of Vα24^+/Vβ11^+ cells was determined by flow cytometry on day 9. The total cell number after expansion was calculated with the Guava ViaCount reagent (Millipore, USA) and detected by the Guava system with CytoSoft™ software containing the ViaCount module (Millipore, USA).
Vα24^+ iNKT cells and CD14^+ cells were isolated from peripheral blood cells as described previously.^19 Immature DCs were generated from the CD14^+ cells after 2-day incubation in the presence of 300 U/ml GM-CSF (R & D Systems) and 100 U/ml IL-4 (R& D Systems).

In assay [2] the test system is Jα18 KO mouse splenocytes. Description: FACS analyses of Jα18 KO mouse immune cells (splenocytes) after glycolipid stimulation. In kind it is in vivo. Conditions: Jα18 KO mice, 3 days after i.v. injection, 1 μg/mouse. The procedure:
as §1

The subject of assay [3] is Jα18 knockout mice. Nature of the assay: Murine serum cytokine/chemokine secretion after i.v. glycolipid, Jα18 knockout mice. In kind it is in vivo. Conditions: Jα18 KO mice, 1 μg/mouse. The procedure: as §2, §3
The target in a further assay is T1, mCD1d dimer (Mus musculus, UniProt P11609).
T1 construct: Ig fusion (dimer); purchased BD Biosciences PharMingen
T1 sequence (P11609 19-305 limits assumed): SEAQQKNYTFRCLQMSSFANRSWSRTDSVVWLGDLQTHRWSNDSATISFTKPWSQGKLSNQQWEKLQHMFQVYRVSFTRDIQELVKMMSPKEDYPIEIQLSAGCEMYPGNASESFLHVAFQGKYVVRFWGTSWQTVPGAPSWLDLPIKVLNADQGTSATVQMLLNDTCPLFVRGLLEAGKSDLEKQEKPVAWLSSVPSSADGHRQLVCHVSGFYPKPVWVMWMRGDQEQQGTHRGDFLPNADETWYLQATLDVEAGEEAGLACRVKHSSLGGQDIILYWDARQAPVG
T1 sequence (P01887 21-119 partner): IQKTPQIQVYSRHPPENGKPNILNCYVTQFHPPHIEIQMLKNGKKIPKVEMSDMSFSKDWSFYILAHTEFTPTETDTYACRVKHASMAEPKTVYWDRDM
Nature of the assay: Binding strength of the binary complex between mCD1d and glycolipid (L363 antibody ELISA). As to conditions: KD from Scatchard transformation (FIG. 10D). The procedure:
Different concentrations of mCD1d^di-glycolipid complexes coated on the ELISA plate were incubated with the saturated amounts of L363 antibody (BioLegend) conjugated with biotin, followed by streptavidin-HRP detection and ELISA measurement. The KD between L363 antibody and the indicated mCD1d^di-glycolipid complex was calculated from the linear regression of the Scatchard transformation of the L363 antibody binding curve using GraphPad Prism software. […] Next, the KD of the binary complex was determined as follows. Different concentrations of glycolipids were incubated with fixed amounts of mCD1d dimer at 37° C. overnight, and then mCD1d^di-glycolipid complexes were coated on the 96 well ELISA plate at 4° C. overnight. After washing and blocking with BSA at room temperature (RT) for 1 hr, L363 antibody conjugated with biotin was added for 30 min at RT, followed by incubation with streptavidin-HRP for 30 min at RT and detection with an ELSIA reader. KD values of the binary complex were calculated from the linear regression of the Scatchard transformation of the L363 antibody binding curve.

The test system of assay [4] is Murine DN3A4-1.2 Vα14+ iNKT hybridoma cells. Description: mCD1d vs. hCD1d swapping assay, murine iNKT cells. It is filed as cell-based, mouse. As to conditions: presented by mCD1d (A20-CD1d) or hCD1d (HeLa-CD1d), 1, 0.1, 0.01 μg/ml. As to the method:
(§4) Murine DN3A4-1.2 Vα14^+ iNKT hybridoma cells or C1-expanded Vα24^+ iNKT cells were pulsed with the indicated glycolipid antigen presented either by mCD1d (A20-CD1d cells) or hCD1d (HeLa-CD1d cells) at 1, 0.1, and 0.01 μg/ml. After 18 hr, the supernatants were harvested for the measurement of cytokine secretion(s). IL-2 released from Vα14^+ iNKT cells was determined by ELISA assay. IFN-γ, IL-4 and IL-2 secreted from Vα24^+ iNKT cells were detected using Beadlyte® Human Cytokine kit (Millipore, N.Y., USA) and Luminex® 200™ reading system.

The next assay deals with human iNKT TCR (Homo sapiens, UniProt A0A0B4J240+P15813). Description: Binding avidity of hCD1d-loaded glycolipids with Vα24+ iNKT cells (ternary interaction). The procedure: Binding avidity of human CD1d-glycolipid complexes to Vα24^+ iNKT cells expanded by 7DW8-5 at 100 ng/ml was determined as described previously.^19
(§5) Vα24^+ iNKT cell lines expanded with 7DW8-5 or C1 were generated as follows. After irradiation with 2,000 rad, the immature DCs were cocultured with syngenic Vα24^+ iNKT cells in the presence of 7DW8-5 or C1 at 100 ng/ml for 1 day. The cells were expanded in the presence of 50 U/ml IL-2 for 10-14 days after lipid removal. The same procedures were repeated once for further stimulation and expansion of iNKT cells.

The subject of assay [5] is C1-expanded Vα24+ iNKT cells. Description: mCD1d vs. hCD1d swapping assay, human iNKT cells. Conditions: presented by mCD1d (A20-CD1d) or hCD1d (HeLa-CD1d), 1, 0.1, 0.01 μg/ml. In kind it is cell-based. The procedure: as §5, §4
A further assay has as its system human iNKT cell. Conditions: as compared to αGalCer; cited from earlier work.
Another assay has as its system murine iNKT cell. As to conditions: as compared to αGalCer; cited from earlier work.
The test system of assay [6] is Jα18 knockout mice. Conditions: Jα18 KO mice; cited from earlier work.

mouse iNKT TCR, sequence (A0A0B4J1J9 entry or part of it, one chain of several): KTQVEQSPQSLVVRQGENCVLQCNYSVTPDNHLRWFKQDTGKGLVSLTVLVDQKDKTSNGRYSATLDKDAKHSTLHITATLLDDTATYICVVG
human iNKT TCR, sequence (A0A0B4J240 22-114): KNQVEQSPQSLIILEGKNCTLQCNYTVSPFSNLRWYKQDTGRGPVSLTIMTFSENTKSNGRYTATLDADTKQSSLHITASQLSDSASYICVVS
human iNKT TCR, sequence (A0A075B6N4 22-114, further chain): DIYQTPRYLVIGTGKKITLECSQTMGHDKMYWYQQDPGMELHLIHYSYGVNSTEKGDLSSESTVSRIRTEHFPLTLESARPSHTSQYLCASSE
human iNKT TCR, sequence (P61769 21-119, further chain): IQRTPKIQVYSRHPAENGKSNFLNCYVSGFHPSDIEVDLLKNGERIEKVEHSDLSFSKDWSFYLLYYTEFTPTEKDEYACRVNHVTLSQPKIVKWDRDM
human iNKT TCR, sequence (P15813 20-301): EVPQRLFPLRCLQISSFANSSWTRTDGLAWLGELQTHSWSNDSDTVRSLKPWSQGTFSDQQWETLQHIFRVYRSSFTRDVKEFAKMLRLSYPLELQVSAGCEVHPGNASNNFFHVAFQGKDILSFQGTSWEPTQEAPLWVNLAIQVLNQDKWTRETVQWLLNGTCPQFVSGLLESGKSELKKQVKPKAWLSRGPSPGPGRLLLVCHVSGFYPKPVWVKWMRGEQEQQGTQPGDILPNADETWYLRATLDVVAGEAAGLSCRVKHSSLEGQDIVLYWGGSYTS

As to `CC[C@@H](O)[C@@H](O)[C@H](CO[C@H]1OC(CO)[C@@H](O)C(O)C1O)NC(=O)Cc1ccc(Oc2ccc(F)cc2)cc1` (stereo partly drawn) [Compound C34-Glc], in the assay with B6 WT mice splenocytes, the “CD80+ DCs activated, as compared to 7DW8-5-Glc” value was ~2 fold and the “CD86+ DCs activated, as compared to 7DW8-5-Glc” value was ~2 fold. Further, the “induction of serum cytokines/chemokines” value in the assay on B6 wild type mice is “triggered both cytokines and chemokines; also recorded: better than 7DW8-5-Glc”. The Kd on mouse iNKT TCR worked out at 7.96 ± 1.27 nM.

Regarding `CC[C@@H](O)[C@@H](O)[C@H](CO[C@H]1OC(CO)[C@@H](O)C(O)C1O)NC(=O)Cc1ccc(F)cc1` (stereo partly drawn) [Compound 7DW8-5-Glc], in the assay with C1-pulsed splenocytes, the “C1-pulsed splenocytes stained by mCD1d dimer loaded with glycolipid” value worked out at 17.1±0.8%. Further, in the assay with B6 wild type mice (sera 2 and 18 hr), the “levels of KC, MCP-1, IP-10 and MIG chemokines” value is “relatively high levels”; the “levels of Th1 and Th2 cytokines” value was “very low levels”. Besides, the “expanding human iNKT cells in vitro (number of expanded iNKT cells on day 9)” value in [1] is recorded as “significantly (p=0.0009) better than 7DW8-5”. In assay [2], the “CD11chi monocyte-derived DCs expansion and activation” value is “significantly expanded and activated”; the “total splenocytes, CD4+ T and CD8+ T cells” value is on record as “No significant differences”. The “binding avidity of the murine ternary complex versus C34-Glc” value on mouse iNKT TCR is given as “comparable”. The “secretion of chemokines including KC, MCP-1, IP-10 and MIG” value in the assay on Jα18 knockout mice [3] is on record as “triggered the secretion”. In addition, the induction of cytokines result in the assay with Jα18 knockout mice [3] (sera 2 and 18 hr after injection) is reported as “no induction of cytokines”. The “binding avidity to mCD1d dimer relative to αGalCer” value on mCD1d dimer is listed as ~20 fold.

Regarding `CCCCCCCCCCCCCC[C@@H](O)[C@@H](O)[C@H](CO[C@H]1O[C@H](CO)[C@@H](O)[C@H](O)[C@@H]1O)NC(=O)CCCCCCCCCCc1ccc(F)cc1` [Compound 7DW8-5-Man], in the assay with B6 WT mice splenocytes, the “expansion of immune cells” value was “did not expand any types of immune cells”. Further, the “cytokine secretion from mouse iNKT cells” value in assay [4] was “could not stimulate”. Moreover, the “induction of serum cytokines/chemokines” value in the assay with B6 wild type mice is on record as “failed to induce any cytokines/chemokines”. Also, on human iNKT TCR, the “staining of human iNKT cells with CD1d-glycolipid dimer” value was “lack of staining”. Also, at mouse iNKT TCR, the “staining of murine iNKT cells with CD1d-glycolipid dimer” value is on record as “lack of staining”. The “cytokine secretion from human iNKT cells” value in assay [5] is recorded as “could not stimulate”.

`CCC(=O)N[C@@H](CO[C@H]1OC(CO)[C@@H](O)C(O)C1O)[C@H](O)[C@H](O)CC` (stereo partly drawn) [Compound C1-Glc]: the “human iNKT cell proliferation” value in the assay with human iNKT cell was “more potent”. Moreover, in the assay on B6 WT mice splenocytes, the “CD80+ DCs activated, as compared to 7DW8-5-Glc” value is given as ~3.5 fold; the “CD86+ DCs activated, as compared to 7DW8-5-Glc” value was ~3 fold; the “total splenocytes and DCs expanded, as compared to 7DW8-5-Glc” value was ~1.3 fold. The “murine iNKT cell proliferation” value in the assay with murine iNKT cell is reported as “less stimulatory”. Also, the “induction of serum cytokines/chemokines” value with B6 wild type mice is “triggered both cytokines and chemokines; also recorded: better than 7DW8-5-Glc”. On mouse iNKT TCR, the Kd was 5.14 ± 0.11 nM.

For the molecule `CCCCCCCCCCCCCCCCCCCCCCCCCC(=O)N[C@@H](CO[C@H]1O[C@H](CO)[C@H](O)[C@H](O)[C@H]1O)[C@H](O)[C@H](O)CCCCCCCCCCCCCC` [Compound C1, α-galactosylceramide, reference compound], the “IFN-γ in the sera” value in the assay with Jα18 knockout mice [6] is recorded as “not secreted”. Moreover, the Kd amounted to 16.4 ± 4.2 nM on human iNKT TCR (hCD1d-glycolipid complex, human Vα24+/Vβ11+ iNKT cells) and 1.24 ± 0.003 nM at mouse iNKT TCR.
